Source: patent publication US7943608B2, “Diazepinoes” (Merck Patent GmbH, priority 2005, dated 2011)

Molecular target: T1, His6-PDK1(Δ1-50) (Homo sapiens, UniProt O15530)
T1 construct: His6 (N)
T1 sequence (O15530 51-556): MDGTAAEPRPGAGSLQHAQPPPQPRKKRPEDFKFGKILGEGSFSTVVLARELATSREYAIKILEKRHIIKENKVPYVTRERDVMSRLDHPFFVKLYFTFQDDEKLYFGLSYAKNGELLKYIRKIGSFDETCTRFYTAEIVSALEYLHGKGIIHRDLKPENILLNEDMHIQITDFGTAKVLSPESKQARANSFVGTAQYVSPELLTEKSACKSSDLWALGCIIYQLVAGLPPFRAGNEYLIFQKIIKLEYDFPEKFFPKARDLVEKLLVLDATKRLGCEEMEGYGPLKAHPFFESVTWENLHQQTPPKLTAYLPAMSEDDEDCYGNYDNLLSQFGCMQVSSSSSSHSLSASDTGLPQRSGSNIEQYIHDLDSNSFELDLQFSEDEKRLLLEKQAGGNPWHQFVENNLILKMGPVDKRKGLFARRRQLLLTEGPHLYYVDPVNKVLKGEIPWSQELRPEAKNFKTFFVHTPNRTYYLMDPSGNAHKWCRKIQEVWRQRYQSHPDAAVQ
Assay: Inhibition of PDK1 (IC50), 384-well flashplate kinase assay
Type: biochemical
Conditions: 4 μM ATP, 400 nM PDKtide
Protocol: Inhibition of PDK1 (IC50)
The kinase assay can be carried out as a 384-well flashplate assay. 3.4 nM His6-PDK1(Δ1-50), 400 nM PDKtide (biotin-bA-bA-[…]) and 4 μM ATP (with 0.2 μCi of 33P-ATP/well) are incubated at […] for 60 min in a total volume of 50 μl (50 mM TRIS, 10 mM Mg acetate, 0.1% of mercaptoethanol, 0.02% of Brij35, 0.1% of BSA, pH 7.5) with or without test substance (5-10 concentrations). The reaction is stopped using 25 μl of 200 mM EDTA solution, filtered with suction after 30 min at room temperature, and the wells are washed with 3 times 100 μl of 0.9% NaCl solution. The nonspecific content of the kinase reaction (blank) is determined using 100 nM staurosporine. Radioactivity is measured using a Topcount scintillation counter (PerkinElmer, USA). IC50 values are calculated using the RS1 computer program.

[1] = second part of Table 1 (compounds 32-124)
[2] = first part of Table 1 (compounds 1-31)

| SMILES | IC50 [1] | IC50 [2] |
| --- | --- | --- |
| CN1CCC(N(C)c2ncc3c(n2)Nc2ccc(N)cc2NC3=O)CC1 [Compound 80] | 190 nM |  |
| CN1CCC(N(C)c2ncc3c(n2)Nc2ccc(NC(=O)Nc4cccs4)cc2NC3=O)CC1 [Compound 89] | 200 nM |  |
| CCC(C)NC(=O)Nc1cccc2c1Nc1nc(N(C)C3CCN(C)CC3)ncc1C(=O)N2 (stereo not drawn) [Compound 92] | 7800 nM |  |
| CCN(c1ncc2c(n1)Nc1ccc(C)cc1NC2=O)C1CCN(C)CC1 [Compound 20] |  | 2800 nM |
| CCN1CCC(Nc2ncc3c(n2)Nc2c(ccc(C)c2C)NC3=O)CC1 [Compound 41] | 6300 nM |  |
| CC(C)Cn1cc(-c2ccc3c(c2)NC(=O)c2cnc(N(C)C4CCN(C)CC4)nc2N3)cn1 [Compound 70] | 110 nM |  |
| CN1CCC(N(C)c2ncc3c(n2)Nc2cc(NC(=O)NC4CCCC4)ccc2NC3=O)CC1 [Compound 69] | 650 nM |  |
| CN1CCC(N(C)c2ncc3c(n2)Nc2ccc(NC(=O)NC(C)(C)C)cc2NC3=O)CC1 [Compound 83] | 200 nM |  |
| CC(C)N1CCC(Nc2ncc3c(n2)Nc2ccc(C#N)cc2NC3=O)CC1 [Compound 58] | 7100 nM |  |
| COc1ccc2c(c1)NC(=O)c1cnc(NC3CCN(C)CC3)nc1N2 [Compound 7, 8-Methoxy-3-(1-methylpiperidin-4-ylamino)-5,10-dihydro-2,4,5,10-tetraazadibenzo[a,d]cyclohepten-11-one] |  | 3100 nM |
| Cc1ccc2c(c1C)Nc1nc(NC3CCN(C)CC3)ncc1C(=O)N2 [Compound 23] |  | 3600 nM |
| Cc1ccc2c(c1)Nc1nc(N(C)C3CCN(C)CC3)ncc1C(=O)N2 [Compound 2, 7-Methyl-3-[methyl(1-methylpiperidin-4-yl)amino]-5,10-dihydro-2,4,5,10-tetraazadibenzo[a,d]cyclohepten-11-one] |  | 2400 nM |
| Cc1cc(C)c2c(c1)NC(=O)c1cnc(N(C)C3CCN(C)CC3)nc1N2 [Compound 33] | 1300 nM |  |
| CN1CCC(N(C)c2ncc3c(n2)Nc2ccc(C#N)cc2NC3=O)CC1 [Compound 38] | 600 nM |  |
| CCC(C)NC(=O)Nc1ccc2c(c1)Nc1nc(N(C)C3CCN(C)CC3)ncc1C(=O)N2 (stereo not drawn) [Compound 77] | 940 nM |  |
| COc1ccc2c(c1)NC(=O)c1cnc(N(C)C3CCN(C)CC3)nc1N2 [Compound 5, S-Methoxy-3-[methyl(1-methylpiperidin-4-yl)amino]-5,10-dihydro-2,4,5,10-tetraazadibenzo[a,d]cyclohepten-11-one] |  | 800 nM |
| Cc1noc(C)c1-c1ccc2c(c1)NC(=O)c1cnc(N(C)C3CCN(C)CC3)nc1N2 [Compound 29] |  | 3200 nM |
| CC(C)N1CCC(Nc2ncc3c(n2)Nc2ccc(C(C)(C)C)cc2NC3=O)CC1 [Compound 51] | 2700 nM |  |
| CCC(C)NC(=O)Nc1ccc2c(c1)NC(=O)c1cnc(N(C)C3CCN(C)CC3)nc1N2 (stereo not drawn) [Compound 87] | 230 nM |  |
| CCOc1ccc2c(c1)NC(=O)c1cnc(N(C)C3CCN(C)CC3)nc1N2 [Compound 64] | 430 nM |  |
| CN1CCC(N(C)c2ncc3c(n2)Nc2ccc(-c4cccs4)cc2NC3=O)CC1 [Compound 63] | 1000 nM |  |
| CC(C)c1ccc2c(c1)NC(=O)c1cnc(NC3CCN(C(C)C)CC3)nc1N2 [Compound 50] | 1200 nM |  |
| CN1CCC(Nc2ncc3c(n2)Nc2ccc(C(C)(C)C)cc2NC3=O)CC1 [Compound 18] |  | 700 nM |
| CCN1CCC(Nc2ncc3c(n2)Nc2c(C)cc(C)cc2NC3=O)CC1 [Compound 42] | 4800 nM |  |
| CC(C)NC(=O)Nc1cccc2c1Nc1nc(N(C)C3CCN(C)CC3)ncc1C(=O)N2 [Compound 79] | 6000 nM |  |
| CN1CCC(N(C)c2ncc3c(n2)Nc2ccc(Br)cc2NC3=O)CC1 [Compound 13] |  | 1700 nM |
| CN1CCC(Nc2ncc3c(n2)Nc2ccc(N(C)C)cc2NC3=O)CC1 [Compound 37] | 190 nM |  |
